# Reference: patent US20130245110A1, “USE FOR CANNABINOIDS” (priority 2008, published 2013)
# Several values for one entry are separate records, joined by “and”; a condition that tells them apart may be missing. Identical values can stand only once.
# Experiments:
# C57B1/6 ob/ob mouse = experiment: Liver triglyceride; format: in vivo; conditions: ob/ob mice, at termination, individual values
# Experimental: Blood samples were also taken at −30 minutes for insulin analysis. • e) Blood Glucose analysis: Duplicate 20 μl samples of blood of were taken for each individual sample and placed in a 96-well assay plate. To each well was added 180 μl aliquots of glucose oxidase reagent. Samples were mixed and then left for approximately 30 minutes. Samples were then analysed automatically using a SpectraMax-250 and SoftMax Pro software. • f) Plasma preparation: Blood was collected for the measurement of i) plasma insulin, ii) cholesterol, iii) free fatty acids or iv) triglyceride concentration. • i. Plasma insulin analysis: Plasma insulin was measured using 5 μl of plasma, compared with a mouse insulin standard using a 96-well micro-assay plate • ii. Plasma cholesterol analysis: To each sample was added 200 μl of infinity cholesterol liquid stable reagent. The samples were mixed and incubated for 5 minutes before reading at dual wavelengths of 500 and 660 nm. • iii. Plasma free fatty acids: 5 μl samples of plasma were measured into a 96-well assay plate, to which was added 0.2 ml of reagents NEFA C • iv. […] Dedicated software was using to quantify amounts of bone and fat. The mice were lightly anaesthetised, sufficient to keep them quiescent during this non-invasive technique. • h) Energy expenditure measurements: Energy expenditure was measured by open circuit indirect calorimetry with mice in their home cages. […] Plasma leptin was measured in fed mice using the Crystal Chem Elisa assay. • j) Plasma adiponectin: Adiponectin exerts some of its weight reduction effects via the brain. […] Plasma adiponectin was measured in overnight fasted mice using the 96-well B-Bridge Elisa assay. • k) Plasma HDL-cholesterol: Plasma HDL-cholesterol was measured in fed mice using the kit from Trinity Biotech. • l) 24 h blood glucose profile: This was determined in order to ensure that changes in the diurnal control of blood glucose were detected. Thus blood samples were obtained at three hourly intervals throughout a continuous 24 h period. • m) Plasma haemoglobin AIC: Samples (10 μl) were analysed using the AIC. […]
# PPARγ = molecular target: T1, PPARγ (Homo sapiens, UniProt P37231); experiment: Transcriptional transactivation assay (luciferase reporter gene 3xPPRE TK luc); format: cell-based; conditions: any concentration tested
# T1 construct: expressed in transfected cells
# T1 sequence (P37231 1-505): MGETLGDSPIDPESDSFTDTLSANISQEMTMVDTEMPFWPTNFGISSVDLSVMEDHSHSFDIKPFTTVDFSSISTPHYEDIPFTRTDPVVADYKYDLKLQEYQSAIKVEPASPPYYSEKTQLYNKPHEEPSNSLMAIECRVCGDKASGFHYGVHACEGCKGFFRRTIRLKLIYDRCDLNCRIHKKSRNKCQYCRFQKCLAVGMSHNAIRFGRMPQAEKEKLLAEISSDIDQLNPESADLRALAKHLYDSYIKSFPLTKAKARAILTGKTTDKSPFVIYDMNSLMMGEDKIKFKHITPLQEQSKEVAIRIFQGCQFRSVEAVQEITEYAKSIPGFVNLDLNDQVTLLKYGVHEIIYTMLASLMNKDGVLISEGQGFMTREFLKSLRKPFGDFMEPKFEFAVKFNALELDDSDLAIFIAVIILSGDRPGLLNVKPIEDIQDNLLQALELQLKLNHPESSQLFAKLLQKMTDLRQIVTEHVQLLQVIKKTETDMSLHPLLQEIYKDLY
# T1 sequence (P19793 1-462 partner): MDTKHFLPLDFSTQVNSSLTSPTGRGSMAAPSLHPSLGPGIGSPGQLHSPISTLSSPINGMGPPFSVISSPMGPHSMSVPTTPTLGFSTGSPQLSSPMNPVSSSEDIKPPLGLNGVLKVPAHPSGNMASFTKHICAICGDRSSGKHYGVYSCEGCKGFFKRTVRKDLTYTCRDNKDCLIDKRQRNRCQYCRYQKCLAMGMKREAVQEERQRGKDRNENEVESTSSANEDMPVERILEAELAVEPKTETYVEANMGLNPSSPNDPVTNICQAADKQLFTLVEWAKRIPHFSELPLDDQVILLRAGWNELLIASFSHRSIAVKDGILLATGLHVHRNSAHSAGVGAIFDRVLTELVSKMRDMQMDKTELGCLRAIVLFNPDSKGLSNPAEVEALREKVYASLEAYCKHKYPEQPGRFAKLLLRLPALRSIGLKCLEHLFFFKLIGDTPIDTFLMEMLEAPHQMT
# Experimental: In vitro vascular studies were carried out in rat isolated aortae by wire myography. PPARγ activation was investigated using reporter gene assays, a PPARγ competition-binding assay and an adipogenesis assay.
structure (smiles),measurement,setting,value
"CCCc1cc(O)c2c(c1)OC(C)(C)[C@@H]1CCC(C)=C[C@@H]21 [THCV, tetrahydrocannabivarin]",Liver triglycerides concentration,C57B1/6 ob/ob mouse; 0.3 mg·kg−1 daily oral gavage (combination: both 0.3),17.16 and 11.16 and 14.94 and 15.48 and 9.10 and 16.72 and 9.33 and 14.97
same,Liver triglycerides concentration,"C57B1/6 ob/ob mouse; 0.3 mg·kg−1 daily oral gavage (combination: both 0.3), listed as pure THCV",increased
same,Liver triglycerides concentration,C57B1/6 ob/ob mouse; 3.0 mg·kg−1 daily oral gavage (combination: both 3.0),8.70 and 15.20 and 10.77 and 9.78 and 12.06 and 13.92 and 18.27 and 14.09
same,PPARγ transcriptional activity,PPARγ,no effect
